Source: PubChem BioAssay (NCI)
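The compound was tested at five concentrations on cells cultured in 96-well plates, with a 48-hour exposure period. GI50 is the concentration that inhibits growth by half. TGI denotes the concentration required for complete inhibition of growth.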

Assays:
Test in all cases: NCI anticancer screen, dose series, 48 h
NCI-H460 lung = test system: NCI-H460 lung
SW-620 colon = test system: SW-620 colon
UO-31 renal = test system: UO-31 renal
KM12 colon = test system: KM12 colon
SK-MEL-28 melanoma = test system: SK-MEL-28 melanoma
CAKI-1 renal = test system: CAKI-1 renal
SN12C renal = test system: SN12C renal
NCI-H226 lung = test system: NCI-H226 lung
A549 NSCLC = test system: A549 NSCLC
UACC-257 melanoma = test system: UACC-257 melanoma
SNB-75 CNS = test system: SNB-75 CNS
TK-10 renal = test system: TK-10 renal
COLO 205 colon = test system: COLO 205 colon
OVCAR-4 ovarian = test system: OVCAR-4 ovarian
A498 renal = test system: A498 renal
HCC-2998 colon = test system: HCC-2998 colon
SK-MEL-5 melanoma = test system: SK-MEL-5 melanoma
OVCAR-3 ovarian = test system: OVCAR-3 ovarian
RPMI-8226 leukemia = test system: RPMI-8226 leukemia
MOLT-4 leukemia = test system: MOLT-4 leukemia
SK-MEL-2 melanoma = test system: SK-MEL-2 melanoma
SNB-19 CNS = test system: SNB-19 CNS
786-0 renal = test system: 786-0 renal
HCT-15 colon = test system: HCT-15 colon
OVCAR-8 ovarian = test system: OVCAR-8 ovarian
NCI/ADR-RES ovarian = test system: NCI/ADR-RES ovarian
IGROV1 ovarian = test system: IGROV1 ovarian
MDA-MB-231 breast = test system: MDA-MB-231 breast
MDA-MB-435 = test system: MDA-MB-435
SK-OV-3 ovarian = test system: SK-OV-3 ovarian
EKVX NSCLC = test system: EKVX NSCLC
MCF7 breast = test system: MCF7 breast
HL-60(TB) leukemia = test system: HL-60(TB) leukemia
HS 578T breast = test system: HS 578T breast
BT-549 breast = test system: BT-549 breast
SR leukemia = test system: SR leukemia
K-562 leukemia = test system: K-562 leukemia
NCI-H522 lung = test system: NCI-H522 lung
LOX IMVI melanoma = test system: LOX IMVI melanoma
UACC-62 melanoma = test system: UACC-62 melanoma
SF-295 CNS = test system: SF-295 CNS
HOP-92 NSCLC = test system: HOP-92 NSCLC
HOP-62 NSCLC = test system: HOP-62 NSCLC
ACHN renal = test system: ACHN renal
HT29 colon = test system: HT29 colon
SF-539 CNS = test system: SF-539 CNS
DU-145 prostate = test system: DU-145 prostate
PC-3 prostate = test system: PC-3 prostate
NCI-H23 lung = test system: NCI-H23 lung
U251 CNS = test system: U251 CNS
CCRF-CEM leukemia = test system: CCRF-CEM leukemia
MALME-3M melanoma = test system: MALME-3M melanoma
M14 melanoma = test system: M14 melanoma
HCT-116 colon = test system: HCT-116 colon
RXF 393 renal = test system: RXF 393 renal
SF-268 CNS = test system: SF-268 CNS
T-47D breast = test system: T-47D breast
OVCAR-5 ovarian = test system: OVCAR-5 ovarian

Compound: Clc1ccccc1-c1nnc2c(Cc3ccccc3)nc3ccccc3n12
- GI50 (NCI-H460 lung): 3.18 µM
- TGI (NCI-H460 lung): > 100 µM
- GI50 (SW-620 colon): 20.7 µM
- TGI (SW-620 colon): > 100 µM
- GI50 (UO-31 renal): > 50 µM
- TGI (UO-31 renal): > 100 µM
- GI50 (KM12 colon): 13.1 µM
- TGI (KM12 colon): > 100 µM
- GI50 (SK-MEL-28 melanoma): > 48.8 µM
- TGI (SK-MEL-28 melanoma): > 100 µM
- GI50 (CAKI-1 renal): 9.59 µM
- TGI (CAKI-1 renal): > 100 µM
- GI50 (SN12C renal): > 100 µM
- TGI (SN12C renal): > 100 µM
- GI50 (NCI-H226 lung): 6.91 µM
- TGI (NCI-H226 lung): > 100 µM
- GI50 (A549 NSCLC): 8.78 µM
- TGI (A549 NSCLC): > 100 µM
- GI50 (UACC-257 melanoma): 33.3 µM
- TGI (UACC-257 melanoma): > 100 µM
- GI50 (SNB-75 CNS): 3.78 µM
- TGI (SNB-75 CNS): 40.3 µM
- GI50 (TK-10 renal): 54 µM
- TGI (TK-10 renal): > 100 µM
- GI50 (COLO 205 colon): > 29.6 µM
- TGI (COLO 205 colon): > 100 µM
- GI50 (OVCAR-4 ovarian): 5.55 µM
- TGI (OVCAR-4 ovarian): > 100 µM
- GI50 (A498 renal): 1.21 µM
- TGI (A498 renal): > 100 µM
- GI50 (HCC-2998 colon): 59.9 µM
- TGI (HCC-2998 colon): > 100 µM
- GI50 (SK-MEL-5 melanoma): 3.67 µM
- TGI (SK-MEL-5 melanoma): > 100 µM
- GI50 (OVCAR-3 ovarian): 22.8 µM
- TGI (OVCAR-3 ovarian): > 100 µM
- GI50 (RPMI-8226 leukemia): 5.64 µM
- TGI (RPMI-8226 leukemia): > 100 µM
- GI50 (MOLT-4 leukemia): 9.04 µM
- TGI (MOLT-4 leukemia): > 100 µM
- GI50 (SK-MEL-2 melanoma): 59.4 µM
- TGI (SK-MEL-2 melanoma): > 100 µM
- GI50 (SNB-19 CNS): 36.3 µM
- TGI (SNB-19 CNS): > 100 µM
- GI50 (786-0 renal): 12.5 µM
- TGI (786-0 renal): 98.3 µM
- GI50 (HCT-15 colon): 1.56 µM
- TGI (HCT-15 colon): > 100 µM
- GI50 (OVCAR-8 ovarian): 7.21 µM
- TGI (OVCAR-8 ovarian): > 100 µM
- GI50 (NCI/ADR-RES ovarian): 12.7 µM
- TGI (NCI/ADR-RES ovarian): > 100 µM
- GI50 (IGROV1 ovarian): 44 µM
- TGI (IGROV1 ovarian): > 100 µM
- GI50 (MDA-MB-231 breast): 7.09 µM
- TGI (MDA-MB-231 breast): > 100 µM
- GI50 (MDA-MB-435): > 100 µM
- TGI (MDA-MB-435): > 100 µM
- GI50 (SK-OV-3 ovarian): 22.5 µM
- TGI (SK-OV-3 ovarian): > 100 µM
- GI50 (EKVX NSCLC): 12.7 µM
- TGI (EKVX NSCLC): > 100 µM
- GI50 (MCF7 breast): 34 µM
- TGI (MCF7 breast): > 100 µM
- GI50 (HL-60(TB) leukemia): 32.5 µM
- TGI (HL-60(TB) leukemia): > 100 µM
- GI50 (HS 578T breast): 9.04 µM
- TGI (HS 578T breast): > 100 µM
- GI50 (BT-549 breast): > 25.9 µM
- TGI (BT-549 breast): > 100 µM
- GI50 (SR leukemia): 3.91 µM
- TGI (SR leukemia): > 100 µM
- GI50 (K-562 leukemia): 5.55 µM
- TGI (K-562 leukemia): > 100 µM
- GI50 (NCI-H522 lung): 29.1 µM
- TGI (NCI-H522 lung): > 100 µM
- GI50 (LOX IMVI melanoma): 3.5 µM
- TGI (LOX IMVI melanoma): > 100 µM
- GI50 (UACC-62 melanoma): 6.9 µM
- TGI (UACC-62 melanoma): > 100 µM
- GI50 (SF-295 CNS): 8.12 µM
- TGI (SF-295 CNS): > 100 µM
- GI50 (HOP-92 NSCLC): 3.45 µM
- TGI (HOP-92 NSCLC): 41.8 µM
- GI50 (HOP-62 NSCLC): 9.92 µM
- TGI (HOP-62 NSCLC): > 100 µM
- GI50 (ACHN renal): 39.4 µM
- TGI (ACHN renal): > 100 µM
- GI50 (HT29 colon): 8.71 µM
- TGI (HT29 colon): > 100 µM
- GI50 (SF-539 CNS): 24.2 µM
- TGI (SF-539 CNS): > 100 µM
- GI50 (DU-145 prostate): 55.1 µM
- TGI (DU-145 prostate): > 100 µM
- GI50 (PC-3 prostate): 4.66 µM
- TGI (PC-3 prostate): > 100 µM
- GI50 (NCI-H23 lung): > 100 µM
- TGI (NCI-H23 lung): > 100 µM
- GI50 (U251 CNS): 4.21 µM
- TGI (U251 CNS): > 100 µM
- GI50 (CCRF-CEM leukemia): 7.11 µM
- TGI (CCRF-CEM leukemia): > 100 µM
- GI50 (MALME-3M melanoma): 33 µM
- TGI (MALME-3M melanoma): > 100 µM
- GI50 (M14 melanoma): > 60.5 µM
- TGI (M14 melanoma): > 100 µM
- GI50 (HCT-116 colon): 3.79 µM
- TGI (HCT-116 colon): > 100 µM
- GI50 (RXF 393 renal): 3.29 µM
- TGI (RXF 393 renal): > 100 µM
- GI50 (SF-268 CNS): 7.15 µM
- TGI (SF-268 CNS): > 100 µM
- GI50 (T-47D breast): 5.77 µM
- TGI (T-47D breast): > 100 µM
- GI50 (OVCAR-5 ovarian): > 100 µM
- TGI (OVCAR-5 ovarian): > 100 µM
